Values quoted from earlier work in patent US11712422B2, “Pharmaceutical compositions comprising activated carbon” (FERRING B.V., priority 2012, dated 2023).

Q: Which “Log P” value does the source give for `c1ccc2[nH]ccc2c1` [Indole] here?
A: 2.14
